# What was measured:
# [1] = tested on: NIH 3T3 mouse fibroblasts; assay: Toxicity in cell culture (cell survival after 72 h incubation); conditions: for Cell survival (average optical density, an index of cell number): NIH 3T3, mean±SD of four determinations
# Description: NIH 3T3 mouse fibroblasts were grown in Dulbecco modified essential medium (DMEM) supplemented with 10% fetal calf serum (FCS, Hyclone, Logan, Utah, USA).
# Results represent the mean±SD of four determinations from different culture dishes at each concentration.
# [2] = Kinetics of tissue uptake after intravenous injection, 1H NMR of perchloric acid organ extracts; conditions: Wistar rats, 1 mmol intravenous
# [3] = Plasma kinetics after intravenous (jugular vein) injection, 1H NMR of plasma; conditions: male Wistar rats
# Male Swiss albino mice = assay: Toxicity (LD50) in intact animals, intraperitoneal, method of Miller and Tainter; conditions: doses as high as 3 g/Kg of body weight
# Source text: At least seven different doses, each one of then administered to six mice, which were kept in different cages, were used for each compound.
# [4] = injection into right jugular vein
SMILES,"Cell survival (average optical density, an index of cell number) ([1]; 1.0 mM compound)","Cell survival (average optical density, an index of cell number) ([1]; 5.0 mM compound)","Cell survival (average optical density, an index of cell number) ([1]; 10.0 mM compound)","Cell survival (average optical density, an index of cell number) ([1]; 20.0 mM compound)","Toxicity in cell culture (in words) ([1]; NIH 3T3, 0 to 20 mM)",Concentration reached in brain [2],Concentration reached in heart [2],Concentration reached in kidney [2],Concentration reached in liver [2],Concentration reached in skeletal muscle [2],Time of peak concentration in kidney [2],Time of peak concentration in skeletal muscle [2],"Clearance from plasma, t1/2 [3, 4]","Highest concentration in plasma [3, 4]","Time after injection at which highest plasma concentration was attained [3, 4]",Signs of toxicity during the pharmacokinetic experiment ([3]; intravenous injection),Toxicity in intact animals (in words) (Male Swiss albino mice)
"CCOC(=O)CC(C(=O)O)n1ccnc1 (racemic) [Compound 9, (±)-3-(etoxycarbonyl)-2-imidazol-1-ilpropionic acid]",1.68 ± 0.04,1.38 ± 0.06,1.52 ± 0.13,1.54 ± 0.09,did not exhibit any toxicity,absent,< 0.5 μmol/g of body weight,13.9 μmol/g of body weight,< 0.2 μmol/g of body weight,5.8 μmol/g of body weight,10 min,20 min,6 min,6.6 mM,1 min,No signs of toxicity were detected,did not exhibit any toxicity
"c1c[nH]cn1 [Compound 1, Imidazol]",,,,,,,,12.1 μmol/g of body weight,,5.3 μmol/g of body weight,30 min,10 to 20 min,,,,,
